In publication PMC8414802, “Hair Cell Generation in Cochlear Culture Models Mediated by Novel γ-Secretase Inhibitors” (Frontiers in Cell and Developmental Biology, 2021):
pIC50: −log10 of the molar value. Read-outs that look alike come from different tables or passages of the source.

What was measured:
[1] = Inner ear pharmacokinetics after transtympanic administration (perilymph, plasma; LC-MS/MS); type: in vivo, guinea pig; conditions: 10% POX, sampled at 0.5, 1 and 6 h post-dosing
Experimental: Female albino Hartley guinea pigs, 250 g, from Charles River (France), housed in macrolon cages (2/cage; Innocage Rat Static-Innovive, Paris) with filter air, were maintained at 22 ± 2°C on a 12-h light cycle with standard A04C (UAR) diet and water “ad libitum.” Lgr5-GFP mice containing an EGFP-IRES-CreERT2 knock-in allele at the Lgr5 locus were obtained from the Jackson Labs (Stock 008875, C57BL/6J/RccHsd background). Atoh1-nGFP transgenic mice (C57Bl/6J background) were from Jane Johnson ([Lumpkin et al., 2003]). Wistar rats were obtained from Charles River.
γ-secretase inhibitors pharmacokinetic studies tested CPD3, CPD8 (Eli Lilly) or LY411575 (Stemcell Technologies) each formulated at 3.4 mg/ml in the following vehicles, 10% Poloxamer 338 (Sigma), 20% Poloxamer 338, 70% PEG400 (Sigma) or 1% hyaluronic acid (HA-700; Lifecore, Chaska, MN, United States) all prepared with PBS (pH 6.2). A single 70 μl injection of the formulated compound (total dose, 870 μg/kg) was delivered to the middle ear space of isoflurane-anesthetized guinea pigs by transtympanic administration. Perilymph from treated animals (perilymph volumes, >2 μl) was collected at time points up to 48 h post-administration (CILcare, Montpellier, France). Briefly, concentrations of each compound in perilymph and plasma, as well as controls prepared in artificial perilymph, were measured by LC-MS/MS on an AB Sciex, API 4000 mass spectrometer using an Onyx C18 5 μm 50^∗2.0 mm separation column (Oroxcell, Romainville, France).
To verify this, in vivo compound concentrations were measured in perilymph of guinea pigs after intratympanic delivery of GSIs into the middle ear. Initially, four vehicle formulations, with different physical properties, were tested, poloxamer 338 (POX; at 10% or 20%), hyaluronic acid (HA), or polyethylene glycol 400 (PEG). For this comparison only one GSI was prepared in each formulation (CPD3, 3.4 mg/ml) and a single dose was injected into the middle ear. Perilymph and plasma were sampled for 48 h (Figure 1D). […] Next, using only 10% POX as vehicle, inner ear adsorption was compared between CPD3, CPD8, and LY411575 by transtympanic injections (Figure 1D, inset). […] Each compound achieved levels several folds above their respective IC50s. The mean maximal perilymph concentration of CPD3 at 0.5 h post-dosing was 85,489 ng/ml (183 μM), then declined at 1 h to 12,928 ng/ml (27.7 μM), and at 6 h to 12,652 ng/ml (27.1 μM). GSIs in plasma samples were not detected (data not shown).

[2] = tested on: Notch-dependent expression of ATOH1 in LS174T cells; assay: ATOH1 expression induction in LS174T cell line by GSIs (RT-PCR); type: cell-based, human; conditions: GSI treatment 72 h, fold-change vs 0.05% DMSO, read-out: IC50 for ATOH1 expression upregulation
Experimental: The human colon cancer cell line LS174T (CL-188; ATCC) was cultured without antibiotics in 1% FBS/Eagle’s Minimum Essential Medium (MEM; Thermo Fisher) ([Asakura et al., 2018]). […]
(§1) Cells or tissue were lysed using RLT Lysis Buffer (Qiagen) and high purity RNA was prepared on the MagNA Pure instrument using MagNA Pure 96 Cellular RNA LV Kit (Roche). Reagents from Thermo Fisher were used for cDNA synthesis by reverse transcription using random hexamers. Resulting cDNA was RNAse H treated and amplified by TaqMan GEX mastermix and PCR primers and probes for human ATOH1 (Hs00944192_s1) and TBP (Hs00427620_m1), mouse Tbp (Mm00446971_m1), Atoh1 (Mm00476035_s1), Hes5 (Mm00439311_g1), Pouf4s (Mm04213795_s1), and Myo7a (Mm01274015_m1) on the Applied Biosystems QuantStudio 7 Flex Real-Time PCR System. Normalized to Tbp, relative gene expression fold-change was quantified and compared between experimental and control conditions by ΔΔCt calculation.
Statistical analysis was performed with GraphPad Prism software (Prism9; GraphPad Software Inc., San Diego, CA, United States). For explant cultures, when the number of explants/replicates was not sufficient to test for Gaussian distribution normal distribution of the data was assumed based on previous experiments ([Perny et al., 2017]; [Erni et al., 2019]). Alternatively, the distribution of the datasets was tested by D’Agostino and Pearson normality test. Unpaired t-tests were used to compare parametric data sets of two groups. Welch’s correction was applied if variances were not equal. For non-parametric data, the Mann–Whitney test was adopted. One-way ANOVA was used to determine the difference in means among multiple groups and multiple comparison correction was tested. Graphs indicate the single data point, the mean values ± standard deviation. IC50s were calculated by non-linear regression of data normalized by percent change from controls to compare multiple experiments. Differences in IC50s from Best fit data were compared by Least Squares (F-test; Extra sum of squares; alpha = 0.05).
To measure the relative potency between different GSIs, a pharmacological assay was initially used to identify the dose ranges effective to induce ATOH1 expression. The cell line LS174T, a human colorectal adenocarcinoma, was used to evaluate Notch-dependent expression of ATOH1 ([Kazanjian et al., 2010]). Two compounds from Eli Lilly, designated LY3056480 (CPD3) and LY3056359 (CPD8) (Figures 1A,B) were compared with the commercially available GSIs LY411575 and DAPT. […] The intermediate potency of CPD3 and 8 was likely to be adequate to achieve levels above the IC50 after dilution into perilymph in the inner ear.

[3] = tested on: Atoh1, Pou4f3, Myo7a expression in otic spheres; assay: Otic sphere assay, hair cell gene expression; type: cell-based, mouse
Experimental: The generation of otic spheres followed previously described protocols ([Oshima et al., 2009]) with modifications during differentiation phase to test GSIs. Briefly, OCs were dissociated and single cells were deposited in ultralow-cluster plates (Corning) and expanded in “full otic medium” consisting of DMEM/F12, supplemented with N2, B27 (Thermo Fisher), EGF (20 ng/ml; Chemicon), bFGF (10 ng/ml; Chemicon), IGF-1 (50 ng/ml; Chemicon), and heparan sulfate (50 ng/ml; Sigma-Aldrich). After culturing for 3–4 days at 37°C, spheres were collected, plated in cell culture-treated 96 well-plate and cultured in DMEM/F12, supplemented with N2, B27 with/without GSIs for 7 days after which they were lysed for RNA extraction.
as §1
CPD3 and CPD8 were further compared for their potency to induce hair cell gene expression in otic sphere assays ([Oshima et al., 2009]). Cells were first expanded in presence of growth factors, and in a second step differentiated by growth factor removal and GSI treatment. […] This indicated a modest advantage of CPD3 in eliciting expression of the early hair cell marker Atoh1, but similar potency on expression of some later markers of HC differentiation, Pou4f3 and Myo7a (Figure 2A). From the results of two screening assays, CPD3 was selected for additional characterization studies based on its lower IC50 to induce Atoh1/ATOH1 expression in the otic spheres and LS174T cells, respectively.

[4] = tested on: hair cell genes Atoh1, Pou4f3, Myo7a in OC explants; assay: Hair cell gene expression in organ of Corti explants (RT-PCR); type: cell-based, mouse; conditions: 5 μM, 4 days, vs DMSO
Experimental: OC explants were isolated from postnatal day 2 (P2) Wistar rats, P0-P2 mice (Lgr5-GFP or Atoh1-nGFP mice). Dissection of the cochlea under a stereomicroscope (Nikon SMZ800, Japan) allowed OC separation from stria vascularis and modiolus, and the sensory epithelium was plated with hair cells facing up on Cell-Tak (Corning, United States)-coated transwell-clear inserts (6-well format, 0.4 μm pore, Corning, United States). Dissection medium was exchanged for 1.5 ml full otic medium supplemented with 10% FBS (Invitrogen) and 0.01% Ampicillin (Sigma), added under the insert membrane, maintaining the OC under a thin film of medium during culture at 37°C. 5-ethyl-2′-deoxyuridine (EdU, 5 μM, Life Technologies) was added directly in the medium when indicated.
Concentrations of small molecule GSIs {LY411575, CPD3, CPD8, DAPT (N-[N-(3,5-Difluorophenacetyl)-L-alanyl]-S-phenylglycine t-butyl ester; Sigma)} were prepared in DMSO and are indicated in Figure Legends and Results. DMSO included as Control. Treatment groups were assigned randomly.
as §1
FIGURE 2 GSI-mediated induction of hair cell gene expression and de novo generation of hair cells in the neonatal cochlear sensory epithelium. (A) Gene expression changes of Atoh1, Pou4f3, and Myo7a in response to Notch pathway inhibition by CPD3 (solid lines, triangles) and CPD8 (dashed lines, open square) in otic spheres. Gene expression is reported as fold-change relative to carrier control-treated (DMSO, 0.05%). (n = 9–12). […] (B) Gene expression analysis for the hair cell genes Atoh-1, Myo7a, and Pou4f3. DMSO control n = 13, CPD3 n = 12, LY411575 n = 9, DAPT n = 6 from 2–4 independent experiments. OC explants were cultured for 4 days with/without GSI prior to lysis and analysis. One-way ANOVA with Dunnett’s multiple comparison test, each condition compared to DMSO control. (*p < 0.05, **p < 0.005, ***p < 0.001). (C) Cell counts of Atoh1 positive HCs (OHC left, IHC right) in the mouse cochlear sensory epithelium in the mid-apex region after 7 days in culture with different γ-secretase inhibitors. One-way ANOVA Dunnett’s multiple comparison test, each condition compared to DMSO control. (*p < 0.05; n = 3–5 independent experiments). (D) Quantification of Pou4f3 positive HCs (OHC left, IHC right) in the cochlear sensory epithelium from P2 rats in the apical domain after 8 days in culture with different γ-secretase inhibitors. One-way ANOVA with Dunnett’s multiple comparison test, each condition compared to DMSO control (*p < 0.05, n = 3). Representative immunohistological images of the apical domain after 8 days incubation (inset). scale bar = 20 μm. (E) Quantification of Pou4f3 positive OHCs in the apex, middle and basal domain of organ of Corti explants from rats after 4 days of CPD3 treatment compared to DMSO (*p < 0.05, unpaired t-test) n = 4–6 explants from 2 independent experiments.

| Perilymph concentrations quantifiable [1] | pIC50 ([2]; Homo sapiens) | pIC50 ([3]; Mus musculus, 168 h, 7 days differentiation with GSI, read-out: IC50 for Atoh1 upregulation) | pIC50 [2] | SMILES | Induction of Atoh1, Pou4f3 and Myo7a expression ([3]; dose-responsive, p < 0.05) | Atoh1 expression [4] | Myo7a expression [4] | Pou4f3 expression [4] |
| --- | --- | --- | --- | --- | --- | --- | --- | --- |
| quantifiable at all time points | 7.21 | 6.52 |  | C[C@H](NC(=O)CCC(F)(F)F)C(=O)N[C@@H]1C(=O)C=C2N(CCC2(C)C)c2ncccc21 [CPD8] | significantly induced |  |  |  |
|  |  |  | 5.85 | C[C@H](NC(=O)Cc1cc(F)cc(F)c1)C(=O)N[C@H](C(=O)OC(C)(C)C)c1ccccc1 [DAPT, N-[N-(3,5-Difluorophenacetyl)-L-alanyl]-S-phenylglycine t-butyl ester] |  | 2.36 ± 0.39 fold | 1.59 ± 0.21 fold | 2.14 ± 0.36 fold |
